Reference: ChEMBL document CHEMBL3045203, “Synthesis and biological evaluation of some N4-substituted 5-nitroisatin-3-thiosemicarbazones” (Med Chem Res, 2012)
Activity calls are given as the source filed them. The calls are words filed in the database; no cut-off is given here.

Legend:
[1] = Toxicity inArtemia salina (brine shrimp) larvae assessed as mortality after 24 hr; format: organism-based; conditions: artemia salina, in vivo; read-out: LD50
Homo sapiens [2] = organism: Homo sapiens; experiment: Inhibition of […] urease using urea as substrate at 10 uM preincubated for 5 min before substrate addition measured after 10 min relative to control
Lemna aequinoctialis [3] = experiment: Phytotoxicity against Lemna aequinoctialis assessed as growth inhibition at 100 ug/ml; format: functional; conditions: read-out: GI
Homo sapiens [4] = organism: Homo sapiens; experiment: Inhibition of […] urease using urea as substrate at 100 uM preincubated for 5 min before substrate addition measured after 10 min relative to control
Homo sapiens [5] = organism: Homo sapiens; experiment: Inhibition of […] urease using urea as substrate at 0.1 uM preincubated for 5 min before substrate addition measured after 10 min relative to control
Homo sapiens [6] = organism: Homo sapiens; experiment: Inhibition of […] urease using urea as substrate at 1 uM preincubated for 5 min before substrate addition measured after 10 min relative to control
Aspergillus flavus = experiment: Antifungal activity against Aspergillus flavus at 200 ug/ml after 7 days; format: functional; conditions: 168 h
Lemna aequinoctialis [7] = experiment: Phytotoxicity against Lemna aequinoctialis assessed as growth inhibition at 1000 ug/ml; format: functional; conditions: read-out: GI
Homo sapiens [8] = organism: Homo sapiens; experiment: Inhibition of […] urease using urea as substrate at 0.01 uM preincubated for 5 min before substrate addition measured after 10 min relative to control
Nakaseomyces glabratus = experiment: Antifungal activity against Candida glabrata at 200 ug/ml after 7 days; format: functional; conditions: 168 h
Lemna aequinoctialis [9] = experiment: Phytotoxicity against Lemna aequinoctialis assessed as growth inhibition at 10 ug/ml; format: functional; conditions: read-out: GI
Candida albicans = experiment: Antifungal activity against Candida albicans at 200 ug/ml after 7 days; format: functional; conditions: 168 h
Microsporum canis = experiment: Antifungal activity against Arthroderma otae at 200 ug/ml after 7 days; format: functional; conditions: 168 h
Fusarium solani = experiment: Antifungal activity against Fusarium solani at 200 ug/ml after 7 days; format: functional; conditions: 168 h
Homo sapiens [10] = organism: Homo sapiens; experiment: Increase of […] urease using urea as substrate at 0.01 uM preincubated for 5 min before substrate addition measured after 10 min relative to control
Homo sapiens [11] = organism: Homo sapiens; experiment: Increase of […] urease using urea as substrate at 100 uM preincubated for 5 min before substrate addition measured after 10 min relative to control
Homo sapiens [12] = organism: Homo sapiens; experiment: Increase of […] urease using urea as substrate at 10 uM preincubated for 5 min before substrate addition measured after 10 min relative to control
Homo sapiens [13] = organism: Homo sapiens; experiment: Increase of […] urease using urea as substrate at 1 uM preincubated for 5 min before substrate addition measured after 10 min relative to control
Homo sapiens [14] = organism: Homo sapiens; experiment: Increase of […] urease using urea as substrate at 0.1 uM preincubated for 5 min before substrate addition measured after 10 min relative to control
Lemna aequinoctialis [15] = experiment: Phytotoxicity against Lemna aequinoctialis assessed as growth inhibition at 0.015 ug/ml; format: functional; conditions: read-out: GI
[16] = Inhibition of […] urease using urea as substrate preincubated for 5 min before substrate addition measured after 10 min
Lemna aequinoctialis [17] = experiment: Phytotoxicity against Lemna aequinoctialis assessed as growth inhibition at 5 ug/ml; format: functional; conditions: read-out: GI
Lemna aequinoctialis [18] = experiment: Phytotoxicity against Lemna aequinoctialis assessed as growth inhibition at 50 ug/ml; format: functional; conditions: read-out: GI
Lemna aequinoctialis [19] = experiment: Phytotoxicity against Lemna aequinoctialis assessed as growth inhibition at 500 ug/ml; format: functional; conditions: read-out: GI

Row | Compound | LC50 at 24 h [1] [µM] | inhibition (Homo sapiens [2]) | inhibition of growth at 100 µg/mL (Lemna aequinoctialis [3]) [%] | inhibition (Homo sapiens [4]) [%] | inhibition (Homo sapiens [5]) | inhibition (Homo sapiens [6]) [%] | inhibition at 200 µg/mL (Aspergillus flavus) [%] | inhibition of growth at 1000 µg/mL (Lemna aequinoctialis [7]) [%] | inhibition (Homo sapiens [8]) [%] | inhibition at 200 µg/mL (Nakaseomyces glabratus) [%] | inhibition of growth at 10 µg/mL (Lemna aequinoctialis [9]) [%] | inhibition at 200 µg/mL (Candida albicans) [%] | inhibition at 200 µg/mL (Microsporum canis) [%] | inhibition at 200 µg/mL (Fusarium solani) [%] | also measured
1 | COc1ccc(OC)c(NC(=S)N/N=C2\C(=O)Nc3ccc([N+](=O)[O-])cc32)c1 | > 1240 | 17.8% | 30 | 11 | 25.9% | 15.6 | 40 | 35 | 34.5 | 0 | 25 | 0 | 20 | 0 | 
2 | O=C1Nc2ccc([N+](=O)[O-])cc2/C1=N/NC(=S)Nc1ccc(F)cc1 | > 1390 |  | 15 |  |  |  | 0 | 20 |  | 0 | 5 | 0 | 20 | 20 | Activity (Homo sapiens [10]): inactive; Activity (Homo sapiens [11]): inactive; Activity (Homo sapiens [12]): inactive; Activity (Homo sapiens [13]): inactive; Activity (Homo sapiens [14]): inactive
3 | C[n+]1ccc(-c2cc[n+](C)cc2)cc1 [PARAQUAT] |  |  |  |  |  |  |  |  |  |  |  |  |  |  | inhibition of growth at 0.015 µg/mL (Lemna aequinoctialis [15]): 100%
4 | COc1ccc(NC(=S)N/N=C2\C(=O)Nc3ccc([N+](=O)[O-])cc32)cc1 | > 1340 | 38.6% | 15 | 46.6 | 44% | 33.6 | 20 | 25 | 47.6 | 0 | 10 | 0 | 0 | 0 | 
5 | Cc1cccc(NC(=S)N/N=C2\C(=O)Nc3ccc([N+](=O)[O-])cc32)c1 | > 1400 | 22% | 20 | 34 | 5.8% | 13.9 | 0 | 25 | 6.5 | 0 | 10 | 0 | 0 | 30 | 
6 | O=C1Nc2ccc([N+](=O)[O-])cc2/C1=N/NC(=S)Nc1ccc(Br)cc1 | > 1190 | 8% | 15 | 4 | 4.5% | 6.6 | 20 | 20 | 18.9 | 0 | 10 | 0 | 0 | 0 | 
7 | O=C1Nc2ccc([N+](=O)[O-])cc2/C1=N/NC(=S)Nc1ccccc1C(F)(F)F | > 1220 | 20.9% | 15 | 21 | 23% | 30.9 | 0 | 25 | 21.6 | 0 | 10 | 0 | 20 | 0 | 
8 | Cc1ccc(NC(=S)N/N=C2\C(=O)Nc3ccc([N+](=O)[O-])cc32)cc1 | > 1400 | 4% | 20 | 7 | inactive | 4 | 30 | 30 | 8 | 0 | 15 | 0 | 40 | 30 | 
9 | COc1ccc(NC(=S)N/N=C2\C(=O)Nc3ccc([N+](=O)[O-])cc32)c(OC)c1 | > 1240 | 53.5% | 25 | 37.9 | 66.8% | 61 | 20 | 30 | 68 | 0 | 15 | 0 | 20 | 0 | IC50 [16]: 27.9 µM
10 | O=C1Nc2ccc([N+](=O)[O-])cc2/C1=N/NC(=S)Nc1ccccc1 | > 1470 | inactive |  | 6 | 5.8% | 0.65 | 20 |  | 8.8 | 0 |  | 0 | 0 | 0 | inhibition of growth at 5 µg/mL (Lemna aequinoctialis [17]): 5%; inhibition of growth at 50 µg/mL (Lemna aequinoctialis [18]): 10%; inhibition of growth at 500 µg/mL (Lemna aequinoctialis [19]): 20%
11 | C=CCNC(=S)N/N=C1\C(=O)Nc2ccc([N+](=O)[O-])cc21 | > 1630 | 8% | 35 | 15.9 | 15% | 12 | 0 | 50 | 21.6 | 0 | 25 | 0 | 20 | 0 | 
12 | NC(N)=S [THIOUREA] |  | 8.09% |  | 94.3 | 14.5% | 20.9 |  |  | 8.16 |  |  |  |  |  | IC50 [16]: 50.1 µM
13 | CCCCCCNC(=S)N/N=C1\C(=O)Nc2ccc([N+](=O)[O-])cc21 | > 1430 | 27% | 35 | 40.9 | 58% | 37 | 0 | 60 | 60 | 0 | 25 | 0 | 50 | 0 | IC50 [16]: 0.44 µM
14 | O=C1Nc2ccc([N+](=O)[O-])cc2/C1=N/NC(=S)Nc1ccc(I)cc1 | > 1070 | 47% | 10 | 50 | 51% | 52 | 0 | 25 | 57 | 0 | 5 | 0 | 0 | 0 | IC50 [16]: 0.901 µM
15 | N#Cc1cccc(NC(=S)N/N=C2\C(=O)Nc3ccc([N+](=O)[O-])cc32)c1 | 1160 | 12.6% | 15 | 8.9 | 16% | 1.8 | 20 | 25 | 20.7 | 0 | 5 | 0 | 20 | 15 | 
